Data published in patent publication US20130204033A1, “ANTIPROLIFERATIVE COMPOUNDS, CONJUGATES THEREOF, METHODS THEREFOR, AND USES THEREOF” (Medarex, Inc., priority 2009, published 2013).
Like-named read-outs stand apart in the source and are kept apart here.

How the values were obtained:
Format in all cases: cell-based, human
OVCAR3 = experiment: ATP luminescence proliferation assay, OVCAR3
Description: (§1) This example generally describes the procedures used to assay the antiproliferative activity of compounds of this invention or their conjugates. Human tumor cell lines were obtained from the American Type Culture Collection (ATCC), P.O. Box 1549, Manassas, Va. 20108, USA, and cultured according to instruction from the ATCC. Cells were seeded at 1.0×10^3 or 1.0×10^4 cells/well in 96-well plates for 3 h for ATP assays or ^3H thymidine assays, respectively. 1:3 serial dilutions of free (unconjugated) compounds or their conjugates were added to the wells. Plates were allowed to incubate for 24 to 72 h. The ^3H thymidine plates were pulsed with 1.0 μCi of ^3H-thymidine per well for the last 24 hours of the total incubation period, harvested, and read on a Top Count Scintillation Counter (Packard Instruments, Meriden, Conn.). ATP levels in the ATP plates were measured using the […]-GLO® Luminescent Cell Viability kit following the manufacturer's manual and read on a GLOMAX® 20/20 luminometer (both from Promega, Madison, Wis., USA). The EC50 values—the concentration at which an agent inhibits or reduces cell proliferation by 50% —were determined using PRISM™ software, version 4.0 (GraphPad Software, La Jolla, Calif., USA).
(§2) Using the ^3H thymidine or the ATP luminescence assay, or both, the activities of compounds of this invention were assayed against the following cancer cell lines: HCT-15 (colorectal cancer, multi-drug resistant (MDR)); Hep3B (liver cancer); LNCaP (prostate cancer, androgen receptor positive (AR^+)); MDA-MB-231 (breast cancer, estrogen receptor, progesterone receptor, and Her2 negative (triple negative)); A2058 (melanoma); U-87 MG (glioblastoma); NCI-H460 (NSCLC); A549 (NSCLC); HPAC (pancreatic cancer, primary); PC3 (prostate cancer, AR); BT474 (breast cancer, Her2 highly positive (Her2hi)); SKOV3 (ovarian cancer, Her2hi); 786-O (renal cancer); UO-31 (renal cancer, MDR); NCI-H740 (SCLC); DMS53 (SCLC); SK-BR3 (breast cancer, Her2hi); ZR-75 (breast cancer, estrogen receptor positive); OVCAR3 (ovarian cancer); HL-60 (APL); OVCAR8/Adr (ovarian cancer, MDR); CEM-Cl (ALL); Nomo-1 (AML); RPMI-8226 (MM)); Raji (lymphoma); SW-480 (colorectal cancer, metastatic); SW-620 (colorectal cancer); and H226 (lung cancer). (Not all compounds were assayed against all cell lines.)
(§3) Table 3 provides the data for the ATP luminescence proliferation assays, with an incubation period of 48, 72, or 96 h, as noted.

786-O = experiment: ATP luminescence proliferation assay, 786-O
Description: as §1, §2
(§4) FIGS. 12a and 12b show illustrative plots for ATP luminescence proliferation assays for a second set of compounds of this invention, against HL-60 and 786-O cells, respectively, with an incubation period of 72 h. FIGS. 12c and 12d show the plots for ^3H thymidine proliferation assays for the same set of compounds, again against HL-60 and 786-O cells, respectively, with a 72 h incubation period. In each instance, doxorubicin was used as a comparative compound.
as §3

OVCAR8/Adr = experiment: ATP luminescence proliferation assay, OVCAR8/Adr; details: read-out: EC50 against the OVACAR8/Adr cell line
Description: as §1, §2, §3

HCT-15 = experiment: ATP luminescence proliferation assay, HCT-15; details: ATP luminescence, HCT-15, 72 h incubation; read-out: EC50 HCT-15 (72 h)
Description: as §1, §2, §3

HL-60 = experiment: ATP luminescence proliferation assay, HL-60
Description: as §1, §2, §4, §3

H226 = experiment: ATP luminescence proliferation assay, H226; details: Homo sapiens, NCI-H226, 72 h incubation period, read-out: EC50 against the H226 cell line
Description: as §1, with “The EC50 values—the concentration at which an agent inhibits or reduces cell proliferation by 50% —were determined using PRISM™ software, version 4.0 (GraphPad Software, La Jolla, Calif., USA).” left out
as §2, with “(Not all compounds were assayed against all cell lines.)” left out

[1] = ATP luminescence, 786-O, 72 h incubation, read-out: EC50 786-O (72 h)

`CC[C@H](C)[C@H](NC(=O)[C@H]1CCCCN1C)C(=O)N(C)[C@H](C[C@@H](OC(C)=O)c1nc(C(=O)N[C@@H](Cc2ccc(N)cc2)C[C@@H](C)C(=O)O)cs1)C(C)C` [Compound 84b] showed an EC50 (OVCAR3; ATP luminescence, OVCAR3, 48 h incubation, read-out: EC50 OVCAR3 (48 h)) of 4.91 nM, an EC50 (786-O; ATP luminescence, 786-O, 48 h incubation, read-out: EC50 786-O (48 h)) of 4.1 nM and an EC50 (OVCAR8/Adr; 48 h incubation period) of 47.2 nM. It also gave an EC50 (HCT-15) of 22.8 nM and an EC50 (HL-60; ATP luminescence, HL-60, 48 h incubation, read-out: EC50 HL-60 (48 h)) of 16 to 27 nM.

`CCCN(C(=O)[C@@H](NC(=O)[C@H]1CCCCN1C)[C@@H](C)CC)[C@H](C[C@@H](OC(C)=O)c1nc(C(=O)N[C@@H](Cc2ccccc2)C(=O)OC)cs1)C(C)C` [Compound 109] showed an EC50 (OVCAR3; Homo sapiens, OVCAR-3, 72 h, read-out: EC50 OVCAR3 (72 h), ATP luminescence, OVCAR3, 72 h incubation) of 0.202 nM, an EC50 (786-O; Homo sapiens, 786-0, 48 h, read-out: EC50 786-O (48 h), ATP luminescence, 786-O, 48 h incubation) of 1.03 nM and an EC50 (OVCAR8/Adr; Homo sapiens, OVCAR-8, 48 h incubation period) of 24.9 nM. The EC50 (H226) was 1.61 nM and the EC50 (HL-60; Homo sapiens, HL-60, 48 h, read-out: EC50 HL-60 (48 h), ATP luminescence, HL-60, 48 h incubation) was 0.019 nM.

In the case of `CCOC(=O)C(C)C[C@H](Cc1ccc(N)cc1)NC(=O)c1csc([C@@H](C[C@H](C(C)C)N(COC(=O)CC(C)C)C(=O)[C@@H](NC(=O)[C@H]2CCCCN2C)[C@@H](C)CC)OC)n1` (stereo partly shown) [Compound 133], the EC50 (786-O; [1]) is reported as 4.17 nM.

For `CCOC(=O)C(C)C[C@H](Cc1ccc(N)cc1)NC(=O)c1csc([C@@H](C[C@H](C(C)C)N(COC)C(=O)[C@@H](NC(=O)[C@H]2CCCCN2C)[C@@H](C)CC)OC)n1` (stereo partly shown) [Compound 134], the EC50 (786-O; [1]) was 9.89 nM.

`CCCOCN(C(=O)[C@@H](NC(=O)[C@H]1CCCCN1C)[C@@H](C)CC)[C@H](C[C@@H](OC)c1nc(C(=O)N[C@@H](Cc2ccc(N)cc2)CC(C)C(=O)OCC)cs1)C(C)C` (stereo partly shown) [Compound 135] was tested, and the EC50 (786-O; [1]) was 12.9 nM.
